The source of these data is patent US7105547B2, “Antimicrobial 1-aryl dihydropyridone compounds” (Pharmacia and Upjohn Company, priority 2002, dated 2006).

Test [1] deals with Staphylococcus aureus UC9213 (SAUR 9213). The experiment in a line: MIC by agar dilution against Staphylococcus aureus UC9213. The note with it: read-out: SAUR 9213 MIC (Minimum Inhibitory Concentration). In kind it is cell-based. An excerpt: (§1) Compounds of this invention have useful activity against a variety of organisms. The in vitro activity of compounds of this invention can be assessed by standard testing procedures such as the determination of minimum inhibitory concentration (MIC) by agar dilution as described in “Approved Standard. Methods for Dilution Antimicrobial Susceptibility Tests for Bacteria That Grow Aerobically”, 3rd. ed., published 1993 by the National Committee for Clinical Laboratory Standards, Villanova, Pa., USA.

For another test, the system named is SPNE 9912. The experiment in a line: MIC by agar dilution against SPNE 9912. The class given is cell-based. To be noted: Streptococcus pneumoniae, read-out: SPNE 9912 MIC (Minimum Inhibitory Concentration).
Text: as §1
A general note: Agar dilution tests growth on a series of plates holding different concentrations.

For another test, the system named is HINF 30063. Nature of the test: MIC by agar dilution against HINF 30063. In kind it is cell-based, H. influenzae. The note with it: Haemophilus influenzae, read-out: HINF 30063 MIC (Minimum Inhibitory Concentration).
Text: as §1

In brackets after ≈: the same amount, converted by molar mass. Where two headings read alike, the source gives them in different places.

With `CC(=O)NC[C@H]1CN(c2ccc(N3C=CC(=O)CC3)c(F)c2)C(=O)O1` [Example 1, N-{3-[3-fluoro-4-(4-oxo-3,4-dihydro-2H-pyridin-1-yl)-phenyl]-2-oxo-oxazolidin-5-ylmethyl}-acetamide], the MIC in test [1] came out at 2 µg/mL (≈ 5.76 µM); in the test on SPNE 9912, 0.25 µg/mL (≈ 0.72 µM); in the test with HINF 30063 (HINF 30063, agar dilution), 4 µg/mL (≈ 11.5 µM).
As for `CC(=O)NC[C@H]1CN(c2cc(F)c(N3C=CC(=O)CC3)c(F)c2)C(=O)O1` [Example 2, N-{3-[3,5-diluoro-4-(4-oxo-3,4-dihydro-2H-pyridin-1-yl)-phenyl]-2-oxo-oxazolidin-5-ylmethyl}-acetamide], the MIC worked out at 1 µg/mL (≈ 2.74 µM) in test [1]; 0.5 µg/mL (≈ 1.37 µM) with SPNE 9912; 8 µg/mL (≈ 21.9 µM) in the test on HINF 30063 (HINF 30063, agar dilution).
In the case of `O=C1C=CN(c2ccc(N3C[C@H](CNC(=O)C(F)F)OC3=O)cc2F)CC1` [Example 3, N-{3-[3-fluoro-4-(4-oxo-3,4-dihydro-2H-pyridin-1-yl)-phenyl]-2-oxo-oxazolidin-5-ylmethyl}-difluoroacetamide], the MIC in test [1] amounted to 1 µg/mL (≈ 2.61 µM); in the test on SPNE 9912 it was 0.25 µg/mL (≈ 0.652 µM); in the test with HINF 30063, 2 µg/mL (≈ 5.22 µM).
Regarding `CCC(=O)NC[C@H]1CN(c2ccc(N3C=CC(=O)CC3)c(F)c2)C(=O)O1` [Example 4, N-{3-[3-fluoro-4-(4-oxo-3,4-dihydro-2H-pyridin-1-yl)-phenyl]-2-oxo-oxazolidin-5-ylmethyl}-propionamide], the MIC in test [1] turned out to be 1 µg/mL (≈ 2.77 µM); in the test with SPNE 9912, 0.5 µg/mL (≈ 1.38 µM); in the test with HINF 30063 (HINF 30063, agar dilution), 2 µg/mL (≈ 5.53 µM).
The like results for `O=C1C=CN(c2ccc(N3C[C@H](CNC(=O)C(Cl)Cl)OC3=O)cc2F)CC1` [Example 5, 2,2-dichloro-N-{3-[3-fluoro-4-(4-oxo-3,4-dihydro-2H-pyridin-1-yl)-phenyl]-2-oxo-oxazolidin-5-ylmethyl}-acetamide] were, in that order, 1 µg/mL (≈ 2.4 µM), 0.25 µg/mL (≈ 0.601 µM) and 1 µg/mL (≈ 2.4 µM).
The like results for `O=C1C=CN(c2ccc(N3C[C@H](CNC(=S)C(F)F)OC3=O)cc2F)CC1` [Example 6, 2,2-difluoro-N-{3-[3-fluoro-4-(4-oxo-3,4-dihydro-2H-pyridin-1-yl)-phenyl]-2-oxo-oxazolidin-5-ylmethyl}-thioacetamide] were, in that order, 1 µg/mL (≈ 2.5 µM), 0.125 µg/mL (≈ 0.313 µM) and 4 µg/mL (≈ 10 µM).
For `COC(=O)NC[C@H]1CN(c2ccc(N3C=CC(=O)CC3)c(F)c2)C(=O)O1` [Example 7, {3-[3-fluoro-4-(4-oxo-3,4-dihydro-2H-pyridin-1-yl)-phenyl]-2-oxo-oxazolidin-5-ylmethyl}-carbamic Acid Methyl Ester], the MIC in test [1] came to 2 µg/mL (≈ 5.5 µM); with SPNE 9912 it was 0.5 µg/mL (≈ 1.38 µM); in the test with HINF 30063 (HINF 30063, agar dilution), 8 µg/mL (≈ 22 µM).
The like results for `O=C1C=CN(c2ccc(N3C[C@H](CNC(=O)C(Cl)Cl)OC3=O)cc2)CC1` [Example 8, 2,2-dichloro-N-{2-oxo-3-[4-(4-oxo-3,4-dihydro-2H-pyridin-1-yl)-phenyl]-oxazolidin-5-ylmethyl}-acetamide] were, in that order, 2 µg/mL (≈ 5.02 µM), 0.25 µg/mL (≈ 0.628 µM) and 2 µg/mL (≈ 5.02 µM).
The like results for `CC(=O)NC[C@H]1CN(c2ccc(N3C=CC(=O)CC3)cc2)C(=O)O1` [Example 9, N-{2-oxo-3-[4-(4-oxo-3,4-dihydro-2H-pyridin-1-yl)-phenyl]-oxazolidin-5-ylmethyl}-acetamide] were, in that order, 2 µg/mL (≈ 6.07 µM), 0.5 µg/mL (≈ 1.52 µM) and 4 µg/mL (≈ 12.1 µM).
The like results for `O=C1C=CN(c2ccc(N3C[C@H](CNC(=S)C(F)F)OC3=O)cc2)CC1` [Example 10, 2,2-difluoro-N-{2-oxo-3-[4-(4-oxo-3,4-dihydro-2H-pyridin-1-yl)-phenyl]-oxazolidin-5-ylmethyl}-thioacetamide] were, in that order, 1 µg/mL (≈ 2.62 µM), 0.25 µg/mL (≈ 0.655 µM) and 4 µg/mL (≈ 10.5 µM).
For the compound `O=C1C=CN(c2ccc(N3C[C@H](CNC(=O)C(F)F)OC3=O)cc2)CC1` [Example 11, 2,2-difluoro-N-{2-oxo-3-[4-(4-oxo-3,4-dihydro-2H-pyridin-1-yl)-phenyl]-oxazolidin-5-ylmethyl}-acetamide], the MIC in test [1] worked out at 2 µg/mL (≈ 5.47 µM); with SPNE 9912 it was 0.5 µg/mL (≈ 1.37 µM); with HINF 30063 (HINF 30063, agar dilution) it was 4 µg/mL (≈ 10.9 µM).
The like results for `CCC(=O)NC[C@H]1CN(c2ccc(N3C=CC(=O)CC3)cc2)C(=O)O1` [Example 12, N-{2-oxo-3-[4-(4-oxo-3,4-dihydro-2H-pyridin-1-yl)-phenyl]-oxazolidin-5-ylmethyl}-propionamide] were, in that order, 4 µg/mL (≈ 11.6 µM), 0.5 µg/mL (≈ 1.46 µM) and 4 µg/mL (≈ 11.6 µM).
The like results for `O=C1C=CN(c2c(F)cc(N3C[C@H](CNC(=O)C(F)F)OC3=O)cc2F)CC1` [Example 13, N-{3-[3,5-difluoro-4-(4-oxo-3,4-dihydro-2H-pyridin-1-yl)-phenyl]-2-oxo-oxazolidin-5-ylmethyl}-2,2-difluoro-acetamide] were, in that order, 2 µg/mL (≈ 4.98 µM), 0.25 µg/mL (≈ 0.623 µM) and 8 µg/mL (≈ 19.9 µM).
As for `O=C1C=CN(c2c(F)cc(N3C[C@H](CNC(=S)C(F)F)OC3=O)cc2F)CC1` [Example 14, N-{3-[3,5-difluoro-4-(4-oxo-3,4-dihydro-2H-pyridin-1-yl)-phenyl]-2-oxo-oxazolidin-5-ylmethyl}-2,2-difluoro-thioacetamide], the MIC in test [1] turned out to be 0.5 µg/mL (≈ 1.2 µM); in the test with SPNE 9912, 0.25 µg/mL (≈ 0.599 µM); in the test with HINF 30063 (HINF 30063, agar dilution), 8 µg/mL (≈ 19.2 µM).
The like results for `O=C1C=CN(c2c(F)cc(N3C[C@H](CNC(=O)C(Cl)Cl)OC3=O)cc2F)CC1` [Example 15, 2,2-dichloro-N-{3-[3,5-difluoro-4-(4-oxo-3,4-dihydro-2H-pyridin-1-yl)-phenyl]-2-oxo-oxazolidin-5-ylmethyl}-acetamide] were, in that order, 2 µg/mL (≈ 4.61 µM), 0.25 µg/mL (≈ 0.576 µM) and 4 µg/mL (≈ 9.21 µM).
Turning to `O=C1C=CN(c2ccc(N3C[C@H](Cn4ccnn4)OC3=O)cc2F)CC1` [Example 16, 1-{2-fluoro-4-[(5R)-2-oxo-5-(1H-1,2,3-triazol-1-ylmethyl)-1,3-oxazolidin-3-yl]phenyl}-2,3-dihydropyridin-4(1H)-one], the MIC in test [1] is 1 µg/mL (≈ 2.8 µM); in the test on SPNE 9912 it was 0.25 µg/mL (≈ 0.7 µM); with HINF 30063 (HINF 30063, agar dilution), 8 µg/mL (≈ 22.4 µM).
The like results for `O=C1C=CN(c2ccc(N3C[C@H](Cn4ccnn4)OC3=O)cc2)CC1` [Example 17, 1-{4-[(5R)-2-oxo-5-(1H-1,2,3-triazol-1-ylmethyl)-1,3-oxazolidin-3-yl]phenyl}-2,3-dihydropyridin-4(1H)-one] were, in that order, 1 µg/mL (≈ 2.95 µM), 1 µg/mL (≈ 2.95 µM) and 8 µg/mL (≈ 23.6 µM).
